Data reported in patent publication US10016424B2, “Method and pharmaceutical composition for use in the treatment of epilepsy” (INSERM (Institut National de la Sante et de la Recherche …, priority 2013, dated 2018).

What was measured:
[1] = molecular target: T1, KARs (Mus musculus, UniProt P39087+Q61626); assay type: cell-based; conditions: WT cultured slices; SYM2081 10 μM, UBP310 5 μM; Sr2+ conditions, 5 μM gabazine, 40 μM D-APV
T1 construct: from tissue; host or cells: dentate granule cells in pilocarpine-treated organotypic hippocampal/entorhinal slice cultures from WT mice (FVB/N)
Experimental: (§1) Hippocampal/entorhinal cortex slices (350 μm) were prepared from pre-genotyped GluK2−/− and WT mice (P9-10, FVB/N background) using a McIlwain tissue chopper. Slices were placed on mesh inserts (Millipore # PICMORG50) inside culture dishes containing 1 ml of the following medium: MEM 50%, HS 25%, HBSS 25%, HEPES 15 mM glucose 6.5 mg/ml and insulin 0.1 mg/ml. Culture medium was changed every 2-3 days and slices maintained in an incubator at 37° C./5% CO2. Pilocarpine (0.5 μM) was added to the medium at 5 D.I.V and removed at 7 D.I.V; slices were utilized for experiments from 9 D.I.V.
Cultured or acute slices were individually transferred to a recording chamber maintained at 30-32° C. and continuously perfused (2 ml/min) with oxygenated normal or adapted ACSF containing 5 μM gabazine. Local field potentials were made in the granule cell layer of the DG with glass electrodes (2-3 MΩ; filled with normal ACSF) using a DAM-80 amplifier (low filter, 1 Hz; […], 3 KHz; World Precision Instruments, Sarasota, Fla.). For evoked synaptic transmission, electrical stimulation was performed with a bipolar NiCh electrode (#762000, AM systems). […] Signals were analyzed off-line using Clampfit 9.2 (PClamp) and MiniAnalysis 6.0.1 (Synaptosoft, Decatur, Ga.). In organotypic slices, spontaneous EPSCs were recorded at the reversal potential for GABAergic currents (Vh=−70 mV). To characterize the nature and kinetic properties of fast and slow events, miniature EPSCs (mEPSCs) evoked in Sr2+ conditions (external Ca2+ was substituted with 1.2 mM Sr2+) were recorded in DGCs from GluK2−/− and WT slices. Electrical stimulation was made in the molecular layer in the continued presence of 5 μM gabazine and 40 μM D-APV; asynchronous mEPSCs were measured during the 300 ms period after the stimulus artifact. […] Filtered traces were also analyzed by Fourier analysis (Hamming) using Clampfit 9.2. In acute hippocampal slices, intensity of antidromically-evoked bursts was quantified using coastline index (Epsztein et al., 2005).

[2] = system: dentate gyrus of organotypic slices; test: Spontaneous interictal-like activity, extracellular field recordings in pilocarpine-treated organotypic hippocampal slice cultures; assay type: cell-based, mouse
Experimental: as §1
Cultured or acute slices were individually transferred to a recording chamber maintained at 30-32° C. and continuously perfused (2 ml/min) with oxygenated normal or adapted ACSF containing 5 μM gabazine. Local field potentials were made in the granule cell layer of the DG with glass electrodes (2-3 MΩ; filled with normal ACSF) using a DAM-80 amplifier (low filter, 1 Hz; […], 3 KHz; World Precision Instruments, Sarasota, Fla.). For evoked synaptic transmission, electrical stimulation was performed with a bipolar NiCh electrode (#762000, AM systems). Whole-cell voltage-clamp recordings of DGCs were made using tight-seal electrodes (5-8 MΩ) filled with an internal solution containing the following (in mM): 135 gluconic acid, 135 CsOH, 10 MgCl2, 0.1 CaCl2, 1 EGTA, 10 HEPES, 2 MgATP, 0.4 NaGTP, and 0.5% biocytin, pH 7.25. We used a Multiclamp 700B amplifier (Molecular Devices): data were filtered at 2 kHz, digitized (20 kHz) with a Digidata 1440A (Molecular Devices) to a PC, and acquired using Clampex 10.1 software (PClamp, Molecular Devices). Signals were analyzed off-line using Clampfit 9.2 (PClamp) and MiniAnalysis 6.0.1 (Synaptosoft, Decatur, Ga.). In organotypic slices, spontaneous EPSCs were recorded at the reversal potential for GABAergic currents (Vh=−70 mV). To characterize the nature and kinetic properties of fast and slow events, miniature EPSCs (mEPSCs) evoked in Sr2+ conditions (external Ca2+ was substituted with 1.2 mM Sr2+) were recorded in DGCs from GluK2−/− and WT slices. Electrical stimulation was made in the molecular layer in the continued presence of 5 μM gabazine and 40 μM D-APV; asynchronous mEPSCs were measured during the 300 ms period after the stimulus artifact. […] In cultured slices, visual representation of time-frequency analysis of local field potentials was performed using Autosignal software (Seasolve 1.7). In brief, field activity was highpass-filtered (>100 Hz) and time-frequency analysis performed using a continuous wavelet (Morlet) that reported integrated power (time-integral-squared amplitude, TISA) across time. Filtered traces were also analyzed by Fourier analysis (Hamming) using Clampfit 9.2. In acute hippocampal slices, intensity of antidromically-evoked bursts was quantified using coastline index (Epsztein et al., 2005).
The role of KARs in spontaneous epileptiform activity was then tested using extracellular field recordings in cultured slices. Recordings were performed in 5 mM K+-containing ACSF and in the presence of 5 μM gabazine in order to enhance neuronal excitability and to reliably record stereotyped spontaneous interictal-like activity (Berdichevsky et al., 2012).

[3] = molecular target: homomeric GluK2 receptors (Homo sapiens, UniProt Q13002); conditions: cited from earlier work
[4] = slices from WT mice, 10 μM SYM2081 or 5 μM UBP310

Sequence of homomeric GluK2 receptors (Q13002 32-908): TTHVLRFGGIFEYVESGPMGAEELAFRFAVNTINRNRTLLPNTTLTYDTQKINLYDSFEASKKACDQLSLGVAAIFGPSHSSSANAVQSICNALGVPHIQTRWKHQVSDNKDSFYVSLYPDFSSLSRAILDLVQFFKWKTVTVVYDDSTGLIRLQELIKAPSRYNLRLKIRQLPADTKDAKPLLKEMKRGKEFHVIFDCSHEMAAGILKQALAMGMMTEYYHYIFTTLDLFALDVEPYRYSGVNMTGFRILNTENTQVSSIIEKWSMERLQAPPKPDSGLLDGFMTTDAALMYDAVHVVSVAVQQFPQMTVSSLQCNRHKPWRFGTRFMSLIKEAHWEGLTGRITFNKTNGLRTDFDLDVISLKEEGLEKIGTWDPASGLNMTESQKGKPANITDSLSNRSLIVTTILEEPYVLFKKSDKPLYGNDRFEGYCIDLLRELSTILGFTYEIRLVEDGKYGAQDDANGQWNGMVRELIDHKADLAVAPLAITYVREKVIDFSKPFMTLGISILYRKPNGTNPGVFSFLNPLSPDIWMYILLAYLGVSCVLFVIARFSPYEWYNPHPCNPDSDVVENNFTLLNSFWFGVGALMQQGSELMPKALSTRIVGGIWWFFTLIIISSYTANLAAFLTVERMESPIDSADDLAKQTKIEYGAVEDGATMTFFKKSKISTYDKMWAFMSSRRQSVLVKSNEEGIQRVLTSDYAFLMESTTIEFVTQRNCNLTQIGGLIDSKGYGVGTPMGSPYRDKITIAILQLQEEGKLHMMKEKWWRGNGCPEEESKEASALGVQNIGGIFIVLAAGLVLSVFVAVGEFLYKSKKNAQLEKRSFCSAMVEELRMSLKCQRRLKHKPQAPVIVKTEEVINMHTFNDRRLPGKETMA
T1 sequence (P39087 32-908): as the sequence (Q13002 32-908) above, with A377S, A463V counted along it
T1 sequence (Q61626 15-979): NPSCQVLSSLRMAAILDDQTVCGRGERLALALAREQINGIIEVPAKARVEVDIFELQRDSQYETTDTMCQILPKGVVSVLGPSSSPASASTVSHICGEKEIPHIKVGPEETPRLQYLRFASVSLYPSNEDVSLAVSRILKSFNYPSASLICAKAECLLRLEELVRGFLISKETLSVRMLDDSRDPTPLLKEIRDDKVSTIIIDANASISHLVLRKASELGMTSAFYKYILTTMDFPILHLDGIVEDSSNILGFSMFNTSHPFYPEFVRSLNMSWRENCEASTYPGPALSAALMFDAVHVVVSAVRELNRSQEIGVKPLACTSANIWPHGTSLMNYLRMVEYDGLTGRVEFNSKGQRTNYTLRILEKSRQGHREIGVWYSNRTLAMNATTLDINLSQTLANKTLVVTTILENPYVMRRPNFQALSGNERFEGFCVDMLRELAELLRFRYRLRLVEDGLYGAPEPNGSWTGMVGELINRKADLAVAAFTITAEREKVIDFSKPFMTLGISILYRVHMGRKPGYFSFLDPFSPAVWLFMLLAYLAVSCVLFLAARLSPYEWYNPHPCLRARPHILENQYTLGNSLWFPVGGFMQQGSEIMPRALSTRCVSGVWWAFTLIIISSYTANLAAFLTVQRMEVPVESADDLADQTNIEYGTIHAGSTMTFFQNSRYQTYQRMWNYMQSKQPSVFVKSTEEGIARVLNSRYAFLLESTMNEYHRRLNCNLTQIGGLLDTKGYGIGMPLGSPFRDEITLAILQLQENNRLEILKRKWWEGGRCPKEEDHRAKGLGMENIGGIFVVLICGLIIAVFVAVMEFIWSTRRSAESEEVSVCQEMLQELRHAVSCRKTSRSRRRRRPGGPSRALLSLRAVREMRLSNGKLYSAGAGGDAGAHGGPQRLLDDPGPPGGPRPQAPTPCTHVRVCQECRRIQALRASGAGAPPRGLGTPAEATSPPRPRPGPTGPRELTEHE

**Q.** What does the source list for `Cc1cn(C[C@H](N)C(=O)O)c(=O)n(Cc2ccsc2C(=O)O)c1=O` [UBP310]?
**A.** effect on KAR-mediated mEPSCs [1]: abolished; effect on interictal-like activity in GluK2-/- mice slices ([2]; GluK2-/- slices, P=0.563, n=7): no effect; alteration of the PD phase (power of paroxysmal discharge) [2, 4]: No significant alteration; reduction of power of the bursts in the late MB phase [2, 4]: 67%; reduction of frequency of interictal-like activity ([2]; slices from WT mice, 10 μM SYM2081 or 5 μM UBP310, 5 mM K+ ACSF, 5 μM gabazine): 49%; frequency of interictal-like activity ([2]; slices from WT mice, 10 μM SYM2081 or 5 μM UBP310, without antagonist 3.2±0.4, mean±SEM): 1.47±0.4 events/min; inhibition of homomeric GluK2 receptors [3]: not homomeric GluK2 receptors
